# Results from patent US20230322659A1, “STROBILURIN TYPE COMPOUNDS AND THEIR USE FOR COMBATING PHYTOPATHOGENIC FUNGI” (priority 2020, published 2023).
# Assays:
# [1] = tested on: Phakopsora pachyrhizi (strain with amino acid substitution F129L in the mitochondrial cytochrome b protein); test: Use Example 1: protective control of soybean rust on soybeans (PHAKPA P2), greenhouse; format: in vivo; conditions: soybean seedlings inoculated 2 days after treatment, % diseased leaf area; for % PHAKPA Disease level P2 at 4 ppm: 4 ppm spray; for % PHAKPA Disease level P2 at 16 ppm: 16 ppm spray
# Protocol: (§1) The compound was dissolved in a mixture of acetone and/or dimethylsulfoxide and the wetting agent/emulsifier Wettol, which is based on ethoxylated alkylphenoles, in a ratio (volume) solvent-emulsifier of 99 to 1 to give a total volume of 5 ml. Subsequently, water was added to total volume of 100 ml. This stock solution was then diluted with the described solvent-emulsifier-water mixture to the final concentration given in the table below.
# (§2) Leaves of potted soybean seedlings were sprayed to run-off with the previously described spray solution, containing the concentration of active ingredient or their mixture as described below. The plants were allowed to air-dry. The trial plants were cultivated for 2 days in a greenhouse chamber at 23-27° C. and a relative humidity between 60 and 80%. Then the plants were inoculated with spores of Phakopsora pachyrhizi. The strain used contains the amino acid substitution F129L in the mitochondrial cytochrome b protein conferring resistance to Qo inhibitors. To ensure the success the artificial inoculation, the plants were transferred to a humid chamber with a relative humidity of about 95% and 20 to 24° C. for 24 hr. The trial plants were cultivated for up to 14 days in a greenhouse chamber at 23 to 27° C. and a relative humidity between 60 and 80%. The extent of fungal attack on the leaves was visually assessed as % diseased leaf area, the disease level of untreated controls was usually higher than 85%.
# (§3) All test results below are given for the control of phytopathogenic fungi containing the amino acid substitution F129L in the mitochondrial cytochrome b protein conferring resistance to Qo inhibitors.
# [2] = tested on: Phakopsora pachyrhizi (strain with amino acid substitution F129L in the mitochondrial cytochrome b protein); test: Use Example 2: protective control of soybean rust on soybeans (PHAKPA P6), greenhouse; format: in vivo; conditions: soybean seedlings inoculated six days after treatment, % diseased leaf area; for % PHAKPA Disease level P6 at 4 ppm: 4 ppm spray; for % PHAKPA Disease level P6 at 16 ppm: 16 ppm spray
# Protocol: as §1
# as §2, with “active ingredient as described” for “active ingredient or their mixture as described”, “cultivated for six days in” for “cultivated for 2 days in”, “95% and 23 to 27°” for “95% and 20 to 24°”, “23 to 27° C. for” for “20 to 24° C. for”
# as §3
SMILES,% PHAKPA Disease level P2 at 4 ppm [1],% PHAKPA Disease level P2 at 16 ppm [1],% PHAKPA Disease level P6 at 4 ppm [2],% PHAKPA Disease level P6 at 16 ppm [2]
CO/N=C(/C(=O)OC)c1cccc(C)c1CO/N=C/c1ccccc1 [Compound 1],100%,96%,90%,83%
CNC(=O)/C(=N/OC)c1cccc(C)c1CO/N=C/c1ccccc1 [Compound 2],50%,2%,63%,15%
CNC(=O)/C(=N/OC)c1cccc(C)c1CO/N=C/c1ccccc1C(F)(F)F [Compound 3],36%,2%,83%,21%
